Consider six molecules from US20210060125A1, “METHOD AND USE OF PnPP-19 FOR PREVENTING AND TREATING EYE DISEASES” (priority 2019, published 2021).

“Also recorded” adds a separate entry of the source.

For data set [1], the system named is Hen's egg chorioallantoic membranes (HET-CAM). Briefly: HET-CAM ocular irritation model. More on the design: key to Irritability classification: NI = Non- irritant; SI = severely irritant. The conditions noted are these: for OII ± SD (mean cumulative score) / OII ± SD: mean ± S.D., n = 6. As to the method: Hen's egg—chorioallantoic membranes (HET-CAM) were used to assess anti-irritant properties of different concentrations of PnPP-19. PnPP-19 was dissolved in 300 μL of saline in order to achieve the concentration of 40 μg, 80 μg, 160 μg, 320 μg, in 20 μL (the volume of one eye drop). Sodium chloride 0.9% (NaCl) was used as negative control and sodium hydroxide 0.1 M (NaOH) as a positive control.
The reactions were classified according to a semi-quantitatively analysis, on a scale from 0 (no reaction) to 3 (strong reaction). The ocular irritation index (OII) was then calculated by the following expression: […]
where h is time (in seconds) from the beginning of bleeding; l lysis, and c coagulation. The following classification was used: OII≤0.9: […]; 0.9<OII≤4.9: moderately irritant; 4.9<OII≤8.9: irritant; 8.9<OII≤21: severely irritant.

The subject of data set [2] is ocular hypertensive rabbits. The conditions noted are these: hypertonic saline into the vitreous body; cited from earlier work.
Data set [3] has as its system HA-induced glaucoma in rats. The conditions noted are these: cited from earlier work.
In data set [4] the test system is Human glaucoma. The conditions noted are these: cited from earlier work.
The test system of data set [5] is Glaucomatous dogs. The conditions noted are these: cited from earlier work.
Data set [6] has as its system healthy subjects. Briefly: Phase 1 clinical trial, safety, tolerability and IOP. Format: in vivo, human. As to the method: Twelve healthy subjects, 6 males and 6 females, were selected to evaluate the safety and tolerability of PnPP-19. PnPP-19 were applied as one eye drop per day (with 250 μg of peptide in 50 μL saline (0.5%)) for 7 days, in one eye, while vehicle (the formulation without the peptide) was applied in the contralateral eye. The eye were randomized in a double-blind way to each intervention.
The safety was analyzed by an ophthalmologist thought a slit lamp in conjunction with a biomiscrscope to examine the anterior and posterior segment of the eye. This procedure was performed in both eyes, in each subject, in the days 1, 2, 3, 4 and 7 of the treatment.
The tolerability was analyzed thought a daily tolerability questionnaire. […] One patient reported mild headache, that last minutes.
IOP was measured with a non-contact tonometer before and 1,2,4 6 and 24 hours after the instillations of PnPP-19 or vehicle.

In data set [7] the test system is male normotensive Wistar rat eye. Briefly: Eye permeation and diffusion of fluorescence-labeled PnPP-19. The conditions noted are these: 80 μg/20 μl eye drop in saline; 3 hours. Format: in vivo. As to the method:
Fluorescence-labeled PnPP-19 (FITC) was applied topically in form of eye drops (peptide dissolved in saline) in a dose of 80 μg/20 μl in the male normotensive Wistar rat eye. Vehicle (saline) was applied in the contralateral eye to be used as control. After 3 hours the eyes were enucleated and prepared for histological analysis using fluorescence microscope APOTOME.2 ZEISS.

Data set [8] relates to glaucomatous male Wistar rats. Format: in vivo, rat. The conditions noted are these: 72 hours after PnPP-19 instillation. As to the method: The effectiveness of the PnPP-19 was first evaluated by measuring the changes in IOP of glaucomatous male Wistar rats (180-220 g, 7 to 10 weeks old, n=6). Glaucoma was induced in the right eye by the injection of 30 μL hyaluronic acid (HA) (10 mg/mL) into the anterior chamber through the clear cornea once per week for 3 weeks on the same calendar day and at the same time. Evaluation of the IOP was performed using a TonoPen (Tono-PenVet, Reichert). To perform the measurements, unsedated animals were topically anesthetized by the instillation of 0.5% proxymetacaine hydrochloride. Three IOP readings (with SE less than 5%) were taken for each eye. The average of these three readings was considered the corresponding value of the IOP. Electroretinogram (ERG) was recorded before and after the glaucoma induction. Eyes were enucleated and corneas and retinas were prepared for histology. The groups of treatment were defined as Healthy or non-glaucomatous—left eye, where HA was not applied; Glaucomatous, Non-treated—right eye, where HA was applied, treated with control (vehicle, saline); […]
The effects of PnPP-19 on rat's vision at the end of the HA glaucomatous model was analyzed by ERG to evaluate if the peptide impacts the visual acuity. […]

Data set [9] concerns normotensive Wistar rats. The experiment in a line: In vivo single-dose acute toxicology, topical eye drops. More on the design: species or system rat. The conditions noted are these: single topical dose 40, 80, 160 μg in 20 μL. The method, then: Single-dose topical application of PnPP-19 was dissolved in 300 of saline at the dose of 40, 80 and 160 μg, in 20 μL of saline, in the form of eye drops, was evaluated in normotensive Wistar rats (150-200 g), n=4 rats per dose group. Fundoscopy and electroretinography were performed at days 0, 1, 7 and 15 after PnPP-19 administration. At day 15, eye tissue was collected to histopathological analysis. Day 0 was considered as a control time point for any dose to evaluate for observed differences.

Data set [10] has as its system male Wistar rats with retinal ischemia. Briefly: Ischemic retina model, study 2 (pre-treatment or prevention). The conditions noted are these: pre-treatment; 3 cd.s.m−2, scotopic; n=6. Format: in vivo, rat. As to the method: The potential neuroprotective effect of PnPP-19 in the retina was investigated with an animal model of ischemic injury. For this purpose, male Wistar rats were treated with PnPP-19 either before or after induction of ischemia (80 μg in 20 μl (one eye drop) once a day administration for seven days).
Male Wistar rats (180-200 g) were anesthetized intraperitoneally with ketamine hydrochloride 90 mg/kg and xylazine hydrochloride 10.0 mg/kg and the retinas were made ischemic according to the protocols of Hughes (HUGHES, W. F. Quantitation of ischemic damage in the rat retina. Exp Eye Res, 53(5): 573-82, 1991), and of Louzada-Junior et al. (Louzada-Junior, P., Dias, J. J., Santos, W. F., Lachat, J. J., Bradford, H. F., Coutinho-Netto, J. Glutamate Release in Experimental Ischaemia of the Retina: An Approach Using Microdialysis. J Neurochem, 59(1):358-63, 1992). IOP was elevated by cannulating the eye anterior chamber, with a sterile 27-gauge needle attached to a manometer/pump connected to an air reservoir (HUGHES, W. F. Quantitation of ischemic damage in the rat retina. Exp Eye Res, 53(5): 573-82, 1991) elevating the IOP to 155 mmHg for 40 min evoking ischemia (indicated by whitening of the eye fundus as blood flow is interrupted). […]
We measured different layer thicknesses to quantify the degree of cell loss to measure the ischemic damage in the rat retina. […]

Where [11] appears, read: daily tolerability questionnaire, n=12.
The mark [12] stands for this setting: all concentrations tested (40-320 μg in 20 μL).

Regarding `[Na+].[OH-]` [0.1M NaOH, sodium hydroxide, reference compound], in data set [1] (0.1 M, positive control), the Irritability classification entry is listed as “SI”, the “irritancy ranking in words” value is “severely irritant (8.9<OII≤21: severely irritant)” and the “OII ± SD (mean cumulative score)” value amounted to 21.11 ± 0.32. Besides, the “OII ± SD (mean cumulative score)” value in data set [1] (0.1 M, positive control, listed as 0.1 M NaOH) was determined as 21.11±0.32.
As to `CC(C)OC(=O)CCC/C=C\C[C@@H]1[C@@H](CC[C@@H](O)CCc2ccccc2)[C@H](O)C[C@@H]1O` [Latanoprost], in data set [2], the “effect on ocular hypertension” value was “not”. Moreover, the “Average IOP reduction (%)” value in [3] is given as 28.1%; in data set [4] it was 13.1%.
For the molecule `O=C(CCC/C=C\C[C@@H]1[C@@H](CC[C@@H](O)CCc2ccccc2)[C@H](O)C[C@@H]1O)OCCCCO[N+](=O)[O-]` [Latanoprostene Bunod], in data set [2], the “effect on ocular hypertension” value is on record as “significantly blunted”. In addition, the “reduction in IOP” value in data set [5] is 44%. In addition, in data set [4], the “Average IOP reduction (%)” value is 31%.
With `CC(C)(C)NC[C@H](O)COc1nsnc1N1CCOCC1` [Timolol], the “Average IOP reduction (%)” value in [3] is 25.3%; in data set [4], 18%.
Regarding “Ac-GERRQYFWIAWYKLANSKK-NH2 (N-terminus and C-terminus assumed) [PnPP-19, Gly Glu Arg Arg Gln Tyr Phe Trp Ile Ala Trp Tyr Lys Leu Ala Asn Ser Lys Lys]”, in data set [6] (250 μg in 50 μL saline (0.5%), one drop per day for 7 days, n=12), the “Safety, slit lamp examination of anterior and posterior segment” value is recorded as “no safety finding”. Besides, the “Blood pressure, heart rate, weight, physical examination, electrocardiogram” value in [6] (250 μg in 50 μL, one drop per day for 7 days, n=12) is “no difference in blood pressure, heart rate, weight, physical examination and electrocardiogram results”. In data set [6] (daily tolerability questionnaire, four events reported), the “Relation of reported adverse events to treatment (investigator)” value was “none of those adverse events were related to PnPP-19”. Moreover, in data set [6] (setting [11]), the “Eye burning after instillation” value was “in one patient”. Besides, in data set [6] (setting [11]), the “Puritis in the eye after instillation” value is reported as “one patient”. The Irritability classification result in data set [1] (40 μg in 20 μL saline), in data set [1] (80 μg in 20 μL saline), in data set [1] (160 μg in 20 μL saline) and in data set [1] (320 μg in 20 μL saline) was “NI” throughout. In addition, the “OII ± SD” value in [1] (40 μg in 20 μL saline), in data set [1] (80 μg in 20 μL saline), in [1] (160 μg in 20 μL saline) and in [1] (320 μg in 20 μL saline) was at most 0.9 ± 0.0 throughout. In [1] (setting [12]), the “irritancy ranking in words” value was “non-irritant”. The “mean cumulative scores (OII)” value in data set [1] (setting [12]) was at most 0.9. In addition, the “signs of vascular response” value in data set [1] (all concentrations tested, observed up to 5 min) is on record as “did not show any signs of vascular response”. Moreover, the “Fluorescence in cornea, vitreous body and retina vs vehicle” value in data set [7] was “permeates the cornea and reaches the retina”. Further, in data set [8], the “Dark-adapted ERG vs glaucomatous non-treated group” value is “no difference”. Besides, the “Histological morphology of cornea and retina” value in data set [9] (day 15, n=4) is “keeps the same morphology; also recorded: does not alter the retinal morphology; also recorded: does not alter the cornea morphology”. The “Fundoscopy vs day 0” value in data set [9] (days 1, 7, 15, n=4 per dose) is reported as “No difference was observed; also recorded: does not affect retinal vessels”. Further, the “Electroretinography a and b wave vs day 0” value in data set [9] (up to day 15) is reported as “absence of retinal nerve damage”. For the same molecule, in data set [10], the ERG b-amp/a-amp ratio result is “an increasing tendency in b/a ratio; also recorded: prevents vision loss”.
Turning to Latanoprost, the “reduction in IOP” value in data set [5] is reported as 27%.
